Measured values as given in ChEMBL document CHEMBL5576037, “Discovery of the first ataxia telangiectasia and Rad3-related (ATR) degraders for cancer treatment” (Eur J Med Chem, 2024).
Activity calls are given as the source filed them. No cut-off for these calls is given here.

Assays:
HCT-116 = experiment: Antiproliferative activity against human HCT-116 cells expressing wildtype ATM incubated for 72 hrs by CCK8 assay; type: functional, cell-based; conditions: HCT-116, 72 h
NCM460 = experiment: Cytotoxicity against human NCM460 cells; type: toxicity, cell-based
[1] = molecular target: T1, Protein cereblon/Serine/threonine-protein kinase ATR (Homo sapiens, UniProt Q13535+Q96SW2); experiment: PROTAC activity at CRBN/ATR in human LoVo cells assessed as induction of ATR degradation measured after 72 hrs by Western blot analysis; type: cell-based
[2] = molecular target: T1, Protein cereblon/Serine/threonine-protein kinase ATR; experiment: PROTAC activity at CRBN/ATR in human LoVo cells assessed as induction of ATR degradation by measuring maximal efficacy after 72 hrs by Western blot analysis relative to control; type: cell-based
[3] = molecular target: T1, Protein cereblon/Serine/threonine-protein kinase ATR; experiment: PROTAC activity at CRBN/ATR in human LoVo cells assessed as induction of ATR degradation at 2.5 uM by Western blot analysis; type: cell-based; conditions: time 6-72 hrs, TDE = time-dependent effect
[4] = molecular target: DNA-dependent protein kinase catalytic subunit (Homo sapiens) (UniProt P78527); experiment: Induction of DNA-PK degradation in human LoVo cells at 0.16 to 10 uM incubated for 72 hrs by Western blot analysis; type: cell-based; conditions: dose 0.16-10 µM
[5] = molecular target: T1, Protein cereblon/Serine/threonine-protein kinase ATR; experiment: PROTAC activity at CRBN/ATR in human LoVo cells assessed as induction of ATR degradation at 1 uM incubated for 24 hrs by global proteomic profiling analysis; type: cell-based
LoVo [6] = experiment: Induction of SIPA1L1 degradation in human LoVo cells at 1 uM incubated for 24 hrs by global proteomic profiling analysis; type: cell-based
LoVo [7] = experiment: Induction of LBP degradation in human LoVo cells at 1 uM incubated for 24 hrs by global proteomic profiling analysis; type: cell-based
[8] = molecular target: T1, Protein cereblon/Serine/threonine-protein kinase ATR; experiment: PROTAC activity at CRBN/ATR in human LoVo cells assessed as induction of ATR degradation at 2.5 uM incubated for 4 hrs by Western blot analysis; type: cell-based
[9] = molecular target: T1, Protein cereblon/Serine/threonine-protein kinase ATR; experiment: PROTAC activity at CRBN/ATR in human LoVo cells assessed as induction of ATR degradation at 2.5 uM preincubated with pomalidomide for 4 hrs followed by compound addition and measured after 48 hrs by Western blot analysis; type: cell-based
[10] = molecular target: T1, Protein cereblon/Serine/threonine-protein kinase ATR; experiment: PROTAC activity at CRBN/ATR in human LoVo cells assessed as induction of ATR degradation at 2.5 uM preincubated with MLN4924 for 4 hrs followed by compound addition and measured after 48 hrs by Western blot analysis; type: cell-based
[11] = molecular target: Serine/threonine-protein kinase ATR (Homo sapiens, UniProt Q13535); experiment: Inhibition of ATR phosphorylation at Thr1989 residue in human LoVo cells incubated for 72 hrs by Western blot analysis; type: cell-based; conditions: dose 0.16-10 µM
[12] = molecular target: T2, Serine/threonine-protein kinase Chk1 (Homo sapiens) (UniProt O14757); experiment: Induction of CHK1 degradation in human LoVo cells at 0.16 to 10 uM incubated for 72 hrs by Western blot analysis; type: cell-based; conditions: dose 0.16-10 µM
T2 sequence (whole entry): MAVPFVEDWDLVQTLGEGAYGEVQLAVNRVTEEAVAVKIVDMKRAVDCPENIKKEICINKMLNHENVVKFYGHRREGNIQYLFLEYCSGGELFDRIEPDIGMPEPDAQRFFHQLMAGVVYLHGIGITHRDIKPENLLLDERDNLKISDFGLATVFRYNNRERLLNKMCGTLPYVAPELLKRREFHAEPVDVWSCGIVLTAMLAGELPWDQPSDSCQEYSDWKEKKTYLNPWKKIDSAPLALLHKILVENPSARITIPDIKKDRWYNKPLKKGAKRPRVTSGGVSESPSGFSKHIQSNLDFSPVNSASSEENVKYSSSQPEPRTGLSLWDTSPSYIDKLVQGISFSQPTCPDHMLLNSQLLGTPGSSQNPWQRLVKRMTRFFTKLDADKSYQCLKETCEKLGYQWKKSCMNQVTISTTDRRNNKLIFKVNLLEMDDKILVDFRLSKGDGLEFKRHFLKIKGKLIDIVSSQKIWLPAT

LoVo [13] = experiment: Cell cycle arrest in human LoVo cells assessed as accumulation of cells at G2/M phase at 0.5 uM incubated for 72 hrs by PI staining based flow cytometric analysis (reference value: 22.2 %); type: functional
[14] = Half-life in BALB/c nude mouse xenografted with human LoVo cells at 25 mg/kg, ip administered as single dose and measured after 12 hrs by LC-MS/MS analysis; type: ADME, organism-based; conditions: in vivo
[15] = Tmax in BALB/c nude mouse xenografted with human LoVo cells at 25 mg/kg, ip administered as single dose and measured after 12 hrs by LC-MS/MS analysis; type: ADME, organism-based; conditions: in vivo
[16] = Cmax in BALB/c nude mouse xenografted with human LoVo cells at 25 mg/kg, ip administered as single dose and measured after 12 hrs by LC-MS/MS analysis; type: ADME, organism-based; conditions: in vivo
[17] = AUC (0 to t) in BALB/c nude mouse xenografted with human LoVo cells at 25 mg/kg, ip administered as single dose and measured after 12 hrs by LC-MS/MS analysis; type: ADME, organism-based; conditions: in vivo
[18] = MRT (0 to infinity) in BALB/c nude mouse xenografted with human LoVo cells at 25 mg/kg, ip administered as single dose and measured after 12 hrs by LC-MS/MS analysis; type: ADME, organism-based; conditions: in vivo
[19] = Toxicity in BALB/c nude mouse xenografted with human LoVo cells assessed as body weight loss at 12.5 to 25 mg/kg, ip administered twice daily for 15 days; type: organism-based; conditions: in vivo, 360 h, dose 12.5-25 mg/kg, time 15 day
[20] = Toxicity in BALB/c nude mouse xenografted with human LoVo cells assessed as effect on heart at 12.5 to 25 mg/kg, ip administered twice daily for 15 days by H and E staining based analysis; type: organism-based; conditions: in vivo, 360 h, dose 12.5-25 mg/kg, time 15 day
[21] = Toxicity in BALB/c nude mouse xenografted with human LoVo cells assessed as effect on liver at 12.5 to 25 mg/kg, ip administered twice daily for 15 days by H and E staining based analysis; type: organism-based; conditions: in vivo, 360 h, dose 12.5-25 mg/kg, time 15 day
LoVo [22] = experiment: Synergistic antitumor activity against human LoVo cells xenografted in BALB/c nude mouse assessed as tumor growth inhibition at 12.5 mg/kg, ip administered once daily for 15 days in presence of cisplatin relative to control; type: functional; conditions: 360 h, time 15 day, read-out: TGI
[23] = molecular target: T1, Protein cereblon/Serine/threonine-protein kinase ATR; experiment: In vivo PROTAC activity at CRBN/ATR in BALB/c nude mouse xenografted with human LoVo cells assessed as reduction in ATR protein level administered intraperitoneally once daily for 15 days by Western blot analysis; type: functional, organism-based; conditions: dose 12.5-25 mg/kg, route ip, time 15.0 day
[24] = molecular target: T1, Protein cereblon/Serine/threonine-protein kinase ATR; experiment: In vivo PROTAC activity at CRBN/ATR in BALB/c nude mouse xenografted with human LoVo cells assessed as reduction in CHK1 phosphorylation at Ser345 residue administered intraperitoneally once daily for 15 days by Western blot analysis; type: functional, organism-based; conditions: dose 12.5-25 mg/kg, route ip, time 15.0 day
Mus musculus = experiment: Effect on CHK1 protein expression in BALB/c nude mouse xenografted with human LoVo cells at 12.5 to 25 mg/kg, ip administered once daily for 15 days by Western blot analysis; type: functional, organism-based; conditions: dose 12.5-25 mg/kg, time 15.0 day

Compound: C[C@@H]1COCCN1c1cc(C2([S@@](C)(=O)=NC(=O)CCc3cn(CCCCCCCC(=O)Nc4cccc5c4C(=O)N(C4CCC(=O)NC4=O)C5=O)nn3)CC2)nc(-c2ccnc3[nH]ccc23)n1 (stereo partly drawn)
- IC50 (HCT-116): 5100 nM
- Activity (NCM460): Non-Toxic
- Activity [1]: Dose-Dependent Effect
- DC50 [1]: 530 nM
- Emax [2]: 84.3%
- Activity [3]: Tde
- Activity [4]: inactive
- Activity [5]: Active
- Activity (LoVo [6]): Active
- Activity (LoVo [7]): Active
- Activity [8]: Active
- Activity [9]: inactive
- Activity [10]: inactive
- inhibition [11]: Dose-Dependent Effect
- Activity [12]: inactive
- Activity (LoVo [13]): 19.7%
- half-life [14]: 4.75 h
- Tmax [15]: 2 h
- Cmax [16]: 1180 ng/mL
- AUC(0-t) at 12 h [17]: 4550 ng·h/mL
- MRT inf [18]: 4.65 h
- Activity [19]: Non-Toxic
- Activity [20]: Non-Toxic
- Activity [21]: Non-Toxic
- inhibition in vivo at 12.5 mg/kg (LoVo [22]): 60.6%
- Activity [23]: Dose-Dependent Effect
- Activity [24]: Dose-Dependent Effect
- Activity (Mus musculus): inactive
